Data as given in BindingDB's records for doi:10.1016/j.bmcl.2005.04.021 (Novartis Institutes For Biomedical Research, 2005).

Target: T1, Adenosine receptor A2b (Homo sapiens, UniProt P29275)
T1 sequence (P29275 whole entry): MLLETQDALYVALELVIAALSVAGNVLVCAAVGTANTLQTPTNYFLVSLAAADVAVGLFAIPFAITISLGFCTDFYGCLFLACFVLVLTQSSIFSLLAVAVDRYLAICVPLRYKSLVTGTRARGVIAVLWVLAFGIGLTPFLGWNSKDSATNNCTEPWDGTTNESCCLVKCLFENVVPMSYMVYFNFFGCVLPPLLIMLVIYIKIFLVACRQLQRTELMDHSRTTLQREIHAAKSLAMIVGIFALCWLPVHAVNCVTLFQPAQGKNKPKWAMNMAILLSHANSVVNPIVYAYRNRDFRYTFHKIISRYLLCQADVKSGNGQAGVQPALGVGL
Test: Inhibition of luciferase production elicited by NECA by compound in CHO cells transfected with human adenosine A2b receptor and a luciferase expressing reporter plasmid in a reporter gene assay

Row | KB [nM] | Compound
1 | 62 | N#Cc1cccc(-c2nc(Nc3ccncc3)sc2-n2cncn2)c1 [3-[2-(Pyridin-4-ylamino)-5-[1,2,4]triazol-1-yl-thiazol-4-yl]-benzonitrile]
2 | 92 | N#Cc1cccc(-c2nc(Nc3cccnc3)sc2-n2ccnc2)c1 [3-[5-Imidazol-1-yl-2-(pyridin-3-ylamino)-thiazol-4-yl]-benzonitrile]
3 | 53 | N#Cc1cccc(-c2nc(Nc3ccccn3)sc2-n2cncn2)c1 [3-[2-(Pyridin-2-ylamino)-5-[1,2,4]triazol-1-yl-thiazol-4-yl]-benzonitrile]
4 | 86 | N#Cc1cccc(-c2nc(Nc3cccnc3)sc2-n2cncn2)c1 [3-[2-(Pyridin-3-ylamino)-5-[1,2,4]triazol-1-yl-thiazol-4-yl]-benzonitrile]
